# Literature values in patent US20080214592A1, “METHODS OF TREATING ANXIETY DISORDERS” (Orexigen Therapeutics, Inc., priority 2005, published 2008).
compound,measurement,value
"CNCCC(Oc1ccc(C(F)(F)F)cc1)c1ccccc1 (stereo not shown) [Fluoxetine, fluoxetine]",physiological half life,about 24 hours
